Data as given in the Deep4Chem optical property database.
Blank lines part the entries; values can stand above or below the compound they belong to.

Assay: solvent given as SMILES

absorption maximum (in ClC(Cl)Cl): 581 nm
Structure (SMILES): CC(C)(C)c1ccc(Oc2cc3c4c(cc(Oc5ccc(C(C)(C)C)cc5)c5c6c(Oc7ccc(C(C)(C)C)cc7)cc7c8c(cc(Oc9ccc(C(C)(C)C)cc9)c(c2c45)c86)C(=O)OC7=O)C(=O)OC3=O)cc1

absorption maximum (in ClCCl): 322 nm
Structure (SMILES): COc1ccc(-c2cnc(-c3ccccc3)o2)cc1OC

absorption maximum (in CC#N): 362 nm
Structure (SMILES): N#Cc1ccc(-n2nc(C#N)c(N3CCCC3)n2)cc1

absorption maximum (in ClCCl): 402 nm
Structure (SMILES): CCCCC(CC)COc1ccc2nc(-c3ccc(-c4ccc(N(C)C)cc4)s3)sc2c1 (stereo not drawn)

absorption maximum (in ClCCl): 435 nm
Structure (SMILES): c1ccc2c(c1)ccc1ccc3ccc4ccc5ccccc5c4c3c12

Structure (SMILES): CCCCCCCCCCOc1ccc(C#Cc2ccc(C#Cc3ccc(OCCCCCCCCCC)c(OCCCCCCCCCC)c3)c3nc4c5ccccc5c5ccccc5c4nc23)cc1OCCCCCCCCCC
absorption maximum (in C1CCOC1): 461 nm
absorption maximum (in Cc1ccccc1): 461 nm
absorption maximum (in ClCCl): 461 nm

absorption maximum (in CC#N): 261 nm
Structure (SMILES): Cc1c[nH]c(=O)[nH]c1=O

absorption maximum (in CC#N): 381.03 nm
absorption maximum (in CO): 391.71 nm
Structure (SMILES): Cn1cc(/C=C/C(=O)c2ccccc2)c2ccccc21

absorption maximum (in CN(C)C=O): 396 nm
Structure (SMILES): O=C([O-])c1ccc(C(=O)[O-])c2cc3ccccc3cc12

absorption maximum (in C1CCOC1): 487 nm
Structure (SMILES): CCCCCOc1cc2oc(=O)c3c4ccc(N(c5ccc(C)cc5)c5ccc(C)cc5)cc4c4ccc5cccc6c(c1)c2c3c4c56

absorption maximum (in ClCCl): 385 nm
Structure (SMILES): CCOC(=O)c1ccc(C2CC(c3cccc4ccccc34)=NN2c2ccc(C)cc2)cc1 (stereo not drawn)

absorption maximum (in CC#N): 438 nm
Structure (SMILES): C(=C\c1nc(-c2ccccc2)c2ccccn12)/c1nc(-c2ccccc2)c2ccccn12

absorption maximum (in CS(C)=O): 318 nm
Structure (SMILES): Nc1ccc2c(c1)NC(=O)CC(=O)N2

absorption maximum (in ClCCl): 602 nm
Structure (SMILES): COc1ccc(-c2c3cc4ccccc4cc3c(-c3ccc(OC)cc3)c3cc4ccccc4cc23)cc1

absorption maximum (in C1CCOC1): 676 nm
absorption maximum (in ClCCl): 685 nm
Structure (SMILES): CCCCCCCc1cc2c(o1)=CC1=C3c4cc5oc(CCCCCCC)cc5n4[B-](F)(F)[n+]4nnn(c43)[B-](F)(F)[N+]=21

Structure (SMILES): COc1ccc(C(=O)/C=C/c2ccc(N(C)C)cc2)cc1OC
absorption maximum (in C1CCOC1): 403 nm
absorption maximum (in CC#N): 412 nm
absorption maximum (in CC(=O)O): 426 nm
absorption maximum (in CC(C)=O): 408 nm
absorption maximum (in CCO): 419 nm
absorption maximum (in CN(C)C=O): 416 nm
absorption maximum (in CO): 421 nm
absorption maximum (in Cc1ccccc1): 404 nm
absorption maximum (in ClC(Cl)Cl): 417 nm
absorption maximum (in c1ccccc1): 406 nm

Structure (SMILES): CCCC1=Cc2nc1ccc1[nH]c(c3nc(ccc4[nH]c2cc4CCC)C(CCC)=C3)c(CN(C)C)c1CCC
absorption maximum (in Cc1ccccc1): 643 nm

absorption maximum (in CN(C)C=O): 361 nm
absorption maximum (in O): 338 nm
Structure (SMILES): CC[N+]1(CC)CN2C(C)=CC(C)=C(C(=O)[O-])C2=N1

absorption maximum (in CC#N): 252 nm
absorption maximum (in CCCCCC): 254 nm
Structure (SMILES): c1ccc(-n2cccc2)cc1

absorption maximum (in C1COCCO1): 322 nm
absorption maximum (in CC#N): 322 nm
absorption maximum (in CC(C)O): 321 nm
absorption maximum (in CCCCO): 321 nm
absorption maximum (in CCO): 321 nm
absorption maximum (in CCOC(C)=O): 322 nm
absorption maximum (in CN(C)C=O): 324 nm
absorption maximum (in CO): 321 nm
absorption maximum (in CS(C)=O): 325 nm
absorption maximum (in O): 319 nm
Structure (SMILES): O=S(=O)([O-])c1ccc(O)c2ccccc12

absorption maximum (in ClC(Cl)Cl): 424 nm
Structure (SMILES): CCCN1c2ccccc2Sc2cc(/C=C\c3cc(=O)oc4cc(C)ccc34)ccc21

absorption maximum (in ClC(Cl)Cl): 623 nm
Structure (SMILES): F[B-]1(F)n2c(ccc2-c2nc3ccccc3s2)C(c2ccccc2)=C2C=CC(c3nc4ccccc4s3)=[N+]21

Structure (SMILES): CN(C)c1ccc(C2=Nc3scc(-c4ccccc4)[n+]3[B-](F)(F)O2)cc1
absorption maximum (in C1CCOC1): 406 nm
absorption maximum (in CC#N): 406 nm
absorption maximum (in Cc1ccccc1): 409 nm
absorption maximum (in ClCCl): 411 nm

Structure (SMILES): CN(C)c1ccc(C2=Nc3sc4c(F)c(F)c(F)c(F)c4[n+]3[B-](F)(F)O2)cc1
absorption maximum (in C1CCOC1): 434 nm
absorption maximum (in CC#N): 431 nm
absorption maximum (in Cc1ccccc1): 431 nm
absorption maximum (in ClCCl): 433 nm

absorption maximum (in ClC(Cl)Cl): 722 nm
Structure (SMILES): Cc1ccc(/C2=c3\cc/c(o3)=C(\c3ccc(C)cc3)c3ccc([nH]3)-c3ccc4n3[B-](F)(F)[N+]3=C(C=CC3=C4c3ccco3)c3ccc2[nH]3)cc1

Structure (SMILES): CCCCCCOc1ccc(C#Cc2ccc(C#CC#Cc3ccc(C#Cc4ccc(OCCCCCC)c(OCCCCCC)c4)c4nsnc34)c3nsnc23)cc1OCCCCCC
absorption maximum (in CN(C)C=O): 468 nm
absorption maximum (in COc1ccccc1): 472 nm
absorption maximum (in Cc1ccccc1): 470 nm
absorption maximum (in ClC(Cl)Cl): 472 nm
absorption maximum (in ClCCCl): 471 nm
absorption maximum (in ClCCl): 469 nm

absorption maximum (in CC#N): 354 nm
Structure (SMILES): CCNc1cc2oc(=O)cc(C)c2cc1C

Structure (SMILES): CCN(CC)c1ccc([N+]2=Cc3ccc4c5c(ccc4c3O[B-]2(c2c(F)c(F)c(F)c(F)c2F)c2c(F)c(F)c(F)c(F)c2F)C=[N+](c2ccc(N(CC)CC)cc2)[B-](c2c(F)c(F)c(F)c(F)c2F)(c2c(F)c(F)c(F)c(F)c2F)O5)cc1
absorption maximum (in C1CCOC1): 559 nm
absorption maximum (in CC#N): 555 nm
absorption maximum (in CC(C)=O): 555 nm
absorption maximum (in Cc1ccccc1): 584 nm
absorption maximum (in ClCCl): 589 nm

absorption maximum (in ClC(Cl)Cl): 408 nm
Structure (SMILES): O=C1CC(c2ccc([N+](=O)[O-])cc2)c2c(c3ccccc3c3nc4ccccc4nc23)O1 (stereo not drawn)

absorption maximum (in O): 347 nm
Structure (SMILES): C=CC1CN2CCC1CC2[C@H](O)c1ccnc2ccc(OC)cc12 (stereo partly drawn)

absorption maximum (in ClC(Cl)Cl): 470 nm
Structure (SMILES): C[Si]1(C)O[Si](C)(C)c2cc3cc4cc5c(cc4cc3cc21)C(=O)c1cc2cc3cc4c(cc3cc2cc1C5=O)[Si](C)(C)O[Si]4(C)C

Structure (SMILES): Cc1ccc2c(c1)C1(c3ccccc3-c3ccccc31)c1cc(C)ccc1N2c1ccc(-c2ncccn2)cc1
absorption maximum (in Cc1ccccc1): 380 nm

absorption maximum (in C1CCOC1): 410 nm
absorption maximum (in CC#N): 416 nm
absorption maximum (in CCO): 416 nm
absorption maximum (in CCOC(C)=O): 408 nm
absorption maximum (in CN(C)C=O): 423 nm
absorption maximum (in ClCCl): 417 nm
absorption maximum (in O): 434 nm
absorption maximum (in c1ccccc1): 409 nm
Structure (SMILES): CCCCn1c2ccc(/C=C(\C#N)c3ccc([N+](=O)[O-])cc3)cc2c2cc(Cn3c(-c4ccc5c(c4)c4ccccc4n5CCCC)nc4ccccc43)ccc21

Structure (SMILES): N#Cc1cc2ccc([O-])cc2oc1=O
absorption maximum (in O): 408 nm

absorption maximum (in ClC(Cl)Cl): 297 nm
Structure (SMILES): N#Cc1ccc(C#Cc2ccccc2C#N)cc1

absorption maximum (in C1CCOC1): 816 nm
absorption maximum (in ClCCl): 826 nm
Structure (SMILES): CCCCCCCc1ccc(C2=[N+]3C(=C4c5cc(OCC(CC)CC)c(-c6ccc(CCCCCCC)o6)n5[B-](F)(F)[n+]5c4n(c4cc(C(C)(C)C)ccc45)[B-]3(F)F)C=C2OCC(CC)CC)o1

absorption maximum (in C1CCOC1): 412 nm
Structure (SMILES): CC(C)(C)c1ccc2c(c1)c1ccc3cccc4c5cccc6oc(=O)c2c(c65)c1c34

absorption maximum (in CC#N): 358 nm
absorption maximum (in CCCCCC): 352 nm
Structure (SMILES): C(=C\c1cccnc1)/c1ccc(Nc2ccccc2)cc1

absorption maximum (in CCOC(C)=O): 292 nm
Structure (SMILES): CCn1c(-c2ccc(-c3cccc4ccccc34)cc2)c(-c2ccc3ccccc3c2)c(-c2ccc3ccccc3c2)c1-c1ccc(-c2cccc3ccccc23)cc1

absorption maximum (in CC#N): 360 nm
absorption maximum (in CCCCCCCCCCCCCCCC): 351 nm
absorption maximum (in CO): 368 nm
absorption maximum (in ClC(Cl)Cl): 359 nm
absorption maximum (in c1ccccc1): 356 nm
Structure (SMILES): CC(C)(C)C1Nc2c(Br)cc(Br)cc2C(=O)N1Cc1ccccc1 (stereo not drawn)

absorption maximum (in CCO): 453 nm
Structure (SMILES): CCOC(=O)c1cc(C(=O)OCC)c2cc(N(CC)CC)ccc2n1

absorption maximum (in ClCCl): 532 nm
Structure (SMILES): CCCCCCOc1ccc(N(c2ccc(OCCCCCC)cc2)c2ccc(-c3sc(-c4ccc(N(c5ccc(OCCCCCC)cc5)c5ccc(OCCCCCC)cc5)cc4)c4nc(CC)c(CC)nc34)cc2)cc1

absorption maximum (in C1CCOC1): 359 nm
absorption maximum (in C1COCCO1): 360 nm
absorption maximum (in CC#N): 358 nm
absorption maximum (in CC(C)O): 358 nm
absorption maximum (in CCO): 358 nm
absorption maximum (in CCOC(C)=O): 358 nm
absorption maximum (in CN(C)C=O): 361 nm
absorption maximum (in CO): 357 nm
absorption maximum (in CS(C)=O): 364 nm
absorption maximum (in O): 360 nm
Structure (SMILES): COc1ccc(C2CC(c3ccc(O)cc3)=NN2c2ccc(S(N)(=O)=O)cc2)cc1 (stereo not drawn)

absorption maximum (in ClCCl): 508 nm
Structure (SMILES): CN(C)c1ccc(C#Cc2cc(C#Cc3ccc(N(C)C)cc3)c3ccc4c(C#Cc5ccc(N(C)C)cc5)cc(C#Cc5ccc(N(C)C)cc5)c5ccc2c3c54)cc1

Structure (SMILES): CC(=O)[B-]1(C(C)=O)OC(c2ccc3ccccc3c2)=CC(c2ccc3ccccc3c2)=[O+]1
absorption maximum (in CC#N): 420 nm
absorption maximum (in ClC(Cl)(Cl)Cl): 415 nm

absorption maximum (in C1CCOC1): 372 nm
Structure (SMILES): COC(=O)c1ccc(/C=C/C(F)(F)F)c(N)c1

absorption maximum (in C1CCCCC1): 431.03 nm
absorption maximum (in C1COCCO1): 434.97 nm
absorption maximum (in CC#N): 434.97 nm
absorption maximum (in CC(C)O): 431.97 nm
absorption maximum (in CCCCCC): 429.92 nm
absorption maximum (in ClC(Cl)Cl): 437.06 nm
absorption maximum (in c1ccccc1): 434.97 nm
Structure (SMILES): CC1(C)CCc2c(c3ccccc3c3nc4c(nc23)c2c(c3ccccc34)OC(C)(C)CC2)O1

absorption maximum (in CC#N): 397 nm
Structure (SMILES): c1ccc2c(c1)ncc1ccc3cnc4ccccc4c3c12

absorption maximum (in ClCCl): 432 nm
Structure (SMILES): COc1ccc(N(c2ccccc2)c2ccc3ccc4c(N(c5ccccc5)c5ccc(OC)cc5)ccc5ccc2c3c54)cc1

absorption maximum (in ClCCl): 363 nm
Structure (SMILES): O=S1(=O)c2ccc(-c3ccc(N(c4ccccc4)c4ccccc4)cc3)cc2C2(c3ccccc3-c3ccccc32)c2cc(-c3ccc(N(c4ccccc4)c4ccccc4)cc3)ccc21

absorption maximum (in CCO): 605 nm
absorption maximum (in ClC(Cl)Cl): 616 nm
absorption maximum (in ClCCl): 615 nm
Structure (SMILES): CCN(CC)c1ccc2cc3c([o+]c2c1)/C(=C/Nc1ccccc1)CCC3

absorption maximum (in ClCCl): 518 nm
Structure (SMILES): CCCCCCOc1cc(/C=C/c2cc(OCCCCCC)c(/C=C/c3cc(OCCCCCC)c(C=C(C#N)C#N)cc3OCCCCCC)cc2OCCCCCC)c(OCCCCCC)cc1C=C(C#N)C#N

absorption maximum (in CC#N): 349 nm
absorption maximum (in ClCCl): 350 nm
Structure (SMILES): Cc1cc(O)c(C(=O)/C=C/c2ccc(Cl)cc2Cl)c(=O)o1

absorption maximum (in c1ccccc1): 474 nm
Structure (SMILES): CN(C)c1ccc2ccc3oc(=O)c(-c4ccccc4)nc3c2c1

absorption maximum (in C1CCCCC1): 357 nm
absorption maximum (in CC#N): 362 nm
absorption maximum (in CC(C)O): 361 nm
absorption maximum (in CO): 363 nm
absorption maximum (in CS(C)=O): 369 nm
absorption maximum (in ClC(Cl)Cl): 362 nm
absorption maximum (in c1ccccc1): 364 nm
Structure (SMILES): CN(C)c1ccc2nc(-c3ccccc3)sc2c1

absorption maximum (in ClCCl): 310 nm
Structure (SMILES): Clc1ccc(N2c3sc4ccccc4c3Sc3sc4ccccc4c32)cc1
